Assay results from PubChem BioAssay (NCI).
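Results reflect a 48-hour exposure of cells in 96-well plates to compound at five concentrations. GI50 is the concentration that inhibits growth by half. TGI denotes the concentration required for complete inhibition of growth.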

Experiments:
Assay in all cases: NCI tumour cell line growth inhibition, 48 h
CCRF-CEM leukemia = tested on: CCRF-CEM leukemia
OVCAR-5 ovarian = tested on: OVCAR-5 ovarian
HCT-15 colon = tested on: HCT-15 colon
SK-OV-3 ovarian = tested on: SK-OV-3 ovarian
HCT-116 colon = tested on: HCT-116 colon
MCF7 breast = tested on: MCF7 breast
UACC-62 melanoma = tested on: UACC-62 melanoma
MDA-MB-435 = tested on: MDA-MB-435
HT29 colon = tested on: HT29 colon
MOLT-4 leukemia = tested on: MOLT-4 leukemia
UO-31 renal = tested on: UO-31 renal
CAKI-1 renal = tested on: CAKI-1 renal
PC-3 prostate = tested on: PC-3 prostate
SNB-75 CNS = tested on: SNB-75 CNS
OVCAR-3 ovarian = tested on: OVCAR-3 ovarian
RXF 393 renal = tested on: RXF 393 renal
SK-MEL-28 melanoma = tested on: SK-MEL-28 melanoma
OVCAR-8 ovarian = tested on: OVCAR-8 ovarian
NCI-H23 lung = tested on: NCI-H23 lung
SNB-19 CNS = tested on: SNB-19 CNS
NCI/ADR-RES ovarian = tested on: NCI/ADR-RES ovarian
IGROV1 ovarian = tested on: IGROV1 ovarian
OVCAR-4 ovarian = tested on: OVCAR-4 ovarian
DU-145 prostate = tested on: DU-145 prostate
SF-295 CNS = tested on: SF-295 CNS
NCI-H522 lung = tested on: NCI-H522 lung
T-47D breast = tested on: T-47D breast
KM12 colon = tested on: KM12 colon
SF-539 CNS = tested on: SF-539 CNS
SR leukemia = tested on: SR leukemia
786-0 renal = tested on: 786-0 renal
MDA-MB-231 breast = tested on: MDA-MB-231 breast
TK-10 renal = tested on: TK-10 renal
U251 CNS = tested on: U251 CNS
NCI-H460 lung = tested on: NCI-H460 lung
COLO 205 colon = tested on: COLO 205 colon
RPMI-8226 leukemia = tested on: RPMI-8226 leukemia
A549 NSCLC = tested on: A549 NSCLC
HL-60(TB) leukemia = tested on: HL-60(TB) leukemia
K-562 leukemia = tested on: K-562 leukemia
SN12C renal = tested on: SN12C renal
HOP-62 NSCLC = tested on: HOP-62 NSCLC
HS 578T breast = tested on: HS 578T breast
SF-268 CNS = tested on: SF-268 CNS
M14 melanoma = tested on: M14 melanoma
UACC-257 melanoma = tested on: UACC-257 melanoma

OCc1ccc(Oc2c3ccccc3nc3occc23)cc1
GI50 (CCRF-CEM leukemia): 31.3 µM
TGI (CCRF-CEM leukemia): > 100 µM
GI50 (OVCAR-5 ovarian): 29.5 µM
TGI (OVCAR-5 ovarian): > 100 µM
GI50 (HCT-15 colon): 19.4 µM
TGI (HCT-15 colon): 47.3 µM
GI50 (SK-OV-3 ovarian): 36.8 µM
TGI (SK-OV-3 ovarian): > 100 µM
GI50 (HCT-116 colon): 15.9 µM
TGI (HCT-116 colon): 29.4 µM
GI50 (MCF7 breast): 16.6 µM
TGI (MCF7 breast): 39.5 µM
GI50 (UACC-62 melanoma): 20 µM
TGI (UACC-62 melanoma): 47.3 µM
GI50 (MDA-MB-435): 15.5 µM
TGI (MDA-MB-435): 38.2 µM
GI50 (HT29 colon): 28.6 µM
TGI (HT29 colon): > 100 µM
GI50 (MOLT-4 leukemia): 21 µM
TGI (MOLT-4 leukemia): 47.2 µM
GI50 (UO-31 renal): 77.2 µM
TGI (UO-31 renal): > 100 µM
GI50 (CAKI-1 renal): 18.1 µM
TGI (CAKI-1 renal): 35.8 µM
GI50 (PC-3 prostate): 31.8 µM
TGI (PC-3 prostate): > 100 µM
GI50 (SNB-75 CNS): 31.7 µM
TGI (SNB-75 CNS): 89.8 µM
GI50 (OVCAR-3 ovarian): 22.1 µM
TGI (OVCAR-3 ovarian): 39.7 µM
GI50 (RXF 393 renal): 4.7 µM
TGI (RXF 393 renal): 23.2 µM
GI50 (SK-MEL-28 melanoma): 41.4 µM
TGI (SK-MEL-28 melanoma): > 100 µM
GI50 (OVCAR-8 ovarian): 28.3 µM
TGI (OVCAR-8 ovarian): > 100 µM
GI50 (NCI-H23 lung): 17.9 µM
TGI (NCI-H23 lung): 40.3 µM
GI50 (SNB-19 CNS): 39.8 µM
TGI (SNB-19 CNS): > 100 µM
GI50 (NCI/ADR-RES ovarian): 20.2 µM
TGI (NCI/ADR-RES ovarian): 49 µM
GI50 (IGROV1 ovarian): 45.6 µM
TGI (IGROV1 ovarian): > 100 µM
GI50 (OVCAR-4 ovarian): 37.9 µM
TGI (OVCAR-4 ovarian): > 100 µM
GI50 (DU-145 prostate): 33.6 µM
TGI (DU-145 prostate): > 100 µM
GI50 (SF-295 CNS): 15.5 µM
TGI (SF-295 CNS): 35.9 µM
GI50 (NCI-H522 lung): > 100 µM
TGI (NCI-H522 lung): > 100 µM
GI50 (T-47D breast): 6.94 µM
TGI (T-47D breast): 62.4 µM
GI50 (KM12 colon): 17.8 µM
TGI (KM12 colon): 37.8 µM
GI50 (SF-539 CNS): 28.9 µM
TGI (SF-539 CNS): 71 µM
GI50 (SR leukemia): 38.5 µM
TGI (SR leukemia): > 100 µM
GI50 (786-0 renal): 33.9 µM
TGI (786-0 renal): > 100 µM
GI50 (MDA-MB-231 breast): 39.4 µM
TGI (MDA-MB-231 breast): > 100 µM
GI50 (TK-10 renal): 18.1 µM
TGI (TK-10 renal): 46.8 µM
GI50 (U251 CNS): 27 µM
TGI (U251 CNS): 56 µM
GI50 (NCI-H460 lung): 20.8 µM
TGI (NCI-H460 lung): 68 µM
GI50 (COLO 205 colon): 26.1 µM
TGI (COLO 205 colon): 54.8 µM
GI50 (RPMI-8226 leukemia): 20.7 µM
TGI (RPMI-8226 leukemia): 65.5 µM
GI50 (A549 NSCLC): 36.5 µM
TGI (A549 NSCLC): > 100 µM
GI50 (HL-60(TB) leukemia): 27.2 µM
TGI (HL-60(TB) leukemia): 79.6 µM
GI50 (K-562 leukemia): 30.9 µM
TGI (K-562 leukemia): > 100 µM
GI50 (SN12C renal): 24.5 µM
TGI (SN12C renal): 62.3 µM
GI50 (HOP-62 NSCLC): 30.4 µM
TGI (HOP-62 NSCLC): > 100 µM
GI50 (HS 578T breast): 54.8 µM
TGI (HS 578T breast): > 100 µM
GI50 (SF-268 CNS): 20.6 µM
TGI (SF-268 CNS): 66.7 µM
GI50 (M14 melanoma): 23.8 µM
TGI (M14 melanoma): 57.6 µM
GI50 (UACC-257 melanoma): 30 µM
TGI (UACC-257 melanoma): 74.7 µM
